Consider 19 compounds from patent publication US8609692B2, “TRPV1 antagonists” (AbbVie Inc., priority 2008, dated 2013).

Data set [1] can be described thus: Rat telemetry protocol (core body temperature). Format: in vivo. The settings on record: core body temperature of rats at one hour post dosing (100 μmol/kg, p.o.), relative to vehicle. As for the experimental part: Male, Sprague Dawley rats, 225-250 grams were anesthetized with Sevoflurane (Abbott Laboratories). Rats were placed on a heating pad and covered with a sterile surgical drape. A ventral midline abdominal incision was made and sterile cotton tip applicators were used to gently move internal tissue and expose the abdominal aorta for implantation of the telemetry catheter (Data Sciences International; TL11M2-050-PXT). Blood flow was temporarily stopped to the lower extremities (5-7 min) with Diffenbach clamps to allow the insertion of the telemetry catheter into the abdominal aorta. Once inserted, a sterile cellulose patch was placed over the catheter/aorta and secured using a small amount of tissue adhesive (Vetbond, 3M). Once catheter placement was complete, the clamps were removed and blood flow was restored to the lower extremities. The transmitter was placed in the intraperitoneal cavity. The transmitter suture rib was sewn into the abdominal sutures to secure it in place. The skin was closed using sterile wound clips and the animal removed from Sevoflurane. Buprenex ([…] s.c.; Phoenix) was administered for post-operative analgesia. Animals were maintained on a heating pad until ambulatory, and then individually housed with food and water ad lib. Surgical staples were removed after 7-10 days post-implantation. Rats were allowed a 2-week post-surgical recovery period before treatment with test compound. Oral dosing (p.o.) was at time zero, with rats receiving a single dose of vehicle (10% EtOH, 20% Tween-80, 70% PEG-400) or a 100 μmol/kg dose of compound dissolved in vehicle. Temperature measurements were recorded every 15 minutes for the duration of the study (24 hours).
The term “core body temperature” as used herein, means the temperature measured in the intraperitoneal cavity.

Data set [2] addresses T1, human TRPV1 receptor (hTRPV1) (Homo sapiens, UniProt Q8NER1).
T1 construct: expressed in transfected cells
The data set is described as follows: Capsaicin activation assay (Ca2+ influx, FLIPR). The format is cell-based. The settings on record: 0.05 μM capsaicin, 1321N1 cells expressing hTRPV1. As for the experimental part:
Dulbecco's modified Eagle medium (D-MEM) (with 4.5 mg/mL glucose) and fetal bovine serum were obtained from Hyclone Laboratories, Inc. (Logan, Utah). Dulbecco's phosphate-buffered saline (D-PBS) (with 1 mg/mL glucose and 3.6 mg/l Na pyruvate, without phenol red), L-glutamine, hygromycin B, and Lipofectamine® were obtained from Life Technologies (Grand Island, N.Y.). G418 sulfate was obtained from Calbiochem-Novabiochem Corp. (San Diego, Calif.). Capsaicin (8-methyl-N-vanillyl-6-nonenamide) was obtained from Sigma-Aldrich, Co. (St. Louis, Mo.). Fluo-4 AM (N-[4-[6-[(acetyloxy)methoxy]-2,7-difluoro-3-oxo-3H-xanthen-9-yl]-2-[2-[2-[bis[2-[(acetyloxy)methoxy]-2-oxyethyl]amino]-5-methyl-phenoxy]ethoxy]phenyl]-N-[2-[(acetyloxy)methoxy]-2-oxyethyl]-glycine, (acetyloxy)methyl ester) was purchased from Molecular Probes (Eugene, Oreg.).
The cDNAs for the human TRPV1 receptor (hTRPV1) were isolated by reverse transcriptase-polymerase chain reaction (RT-PCR) from human small intestine poly A+RNA supplied by Clontech (Palo Alto, Calif.) using primers designed surrounding the initiation and termination codons identical to the published sequences (Hayes et al. Pain 2000, 88, 205-215). The resulting cDNA PCR products were subcloned into pCIneo mammalian expression vector (Promega) and fully sequenced using fluorescent dye-terminator reagents (Prism, Perkin-Elmer Applied Biosystems Division) and a Perkin-Elmer Applied Biosystems Model 373 DNA sequencer or Model 310 genetic analyzer. Expression plasmids encoding the hTRPV1 cDNA were transfected individually into 1321N1 human astrocytoma cells using Lipofectamine®. Forty-eight hours after transfection, the neomycin-resistant cells were selected with growth medium containing 800 μg/mL Geneticin (Gibco BRL). Surviving individual colonies were isolated and screened for TRPV1 receptor activity. Cells expressing recombinant homomeric TRPV1 receptors were maintained at 37° C. in D-MEM containing 4 mM L-glutamine, 300 μg/mL G418 (Cal-biochem) and 10% fetal bovine serum under a humidified 5% CO2 atmosphere.
The functional activity of compounds at the TRPV1 receptor was determined with a Ca^2+ influx assay and measurement of intracellular Ca^2+ levels ([Ca^2+]i). All compounds were tested over an 11-point half-log concentration range. Compound solutions were prepared in D-PBS (4× final concentration), and diluted serially across 96-well v-bottom tissue culture plates using a Biomek 2000 robotic automation workstation (Beckman-Coulter, Inc., Fullerton, Calif.). A 0.2 μM solution of the TRPV1 agonist capsaicin was also prepared in D-PBS. The fluorescent Ca^2+ chelating dye Fluo-4 AM was used as an indicator of the relative levels of [Ca^2+]i in a 96-well format using a Fluorescence Imaging Plate Reader (FLIPR) (Molecular Devices, Sunnyvale, Calif.). Cells were grown to confluency in 96-well black-walled tissue culture plates. Then, prior to the assay, the cells were loaded with 100 μL per well of Fluo-4 AM (2 μM, in D-PBS) for 1-2 hours at 23° C. Washing of the cells was performed to remove extracellular Fluo-4 AM (2×1 mL D-PBS per well), and afterward, the cells were placed in the reading chamber of the FLIPR instrument. 50 μL of the compound solutions were added to the cells at the 10 second time mark of the experimental run. Then, after a 3-minute time delay, 50 μL of the capsaicin solution was added at the, 190 second time mark (0.05 μM final concentration)(final volume=200 μL) to challenge the TRPV1 receptor. Time length of the experimental run was 240 seconds. Fluorescence readings were made at 1 to 5 second intervals over the course of the experimental run. The peak increase in relative fluorescence units (minus baseline) was calculated from the 190 second time mark to the end of the experimental run, and expressed as a percentage of the 0.05 μM capsaicin (control) response. […]

T1 sequence (Q8NER1 whole entry): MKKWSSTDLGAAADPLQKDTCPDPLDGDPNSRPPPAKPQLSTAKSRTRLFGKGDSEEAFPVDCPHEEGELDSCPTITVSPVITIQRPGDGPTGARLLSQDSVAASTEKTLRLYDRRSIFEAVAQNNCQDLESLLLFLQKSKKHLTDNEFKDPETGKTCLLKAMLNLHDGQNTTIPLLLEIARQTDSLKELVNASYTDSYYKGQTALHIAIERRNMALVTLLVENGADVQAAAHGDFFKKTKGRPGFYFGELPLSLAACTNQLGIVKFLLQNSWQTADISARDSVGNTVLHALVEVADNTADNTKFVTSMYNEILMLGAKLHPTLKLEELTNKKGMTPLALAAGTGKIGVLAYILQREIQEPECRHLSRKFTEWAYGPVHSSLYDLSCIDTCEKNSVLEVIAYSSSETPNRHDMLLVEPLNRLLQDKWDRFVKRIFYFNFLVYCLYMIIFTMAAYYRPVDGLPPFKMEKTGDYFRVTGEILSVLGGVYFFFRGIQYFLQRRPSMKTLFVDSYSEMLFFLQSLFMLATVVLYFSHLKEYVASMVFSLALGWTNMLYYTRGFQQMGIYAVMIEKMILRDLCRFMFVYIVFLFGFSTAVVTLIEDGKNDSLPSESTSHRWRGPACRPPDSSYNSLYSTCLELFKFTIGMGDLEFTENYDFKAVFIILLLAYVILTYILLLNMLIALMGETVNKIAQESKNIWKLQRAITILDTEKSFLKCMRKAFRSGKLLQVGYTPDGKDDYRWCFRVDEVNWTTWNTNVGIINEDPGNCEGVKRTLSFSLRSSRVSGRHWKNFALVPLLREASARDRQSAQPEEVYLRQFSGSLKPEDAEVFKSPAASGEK

Regarding `CCC1(CC)C[C@@H](NC(=O)Nc2cccc3c2C[C@H](O)CC3)c2cc(F)ccc2O1` [Example 54, N-[(4R)-2,2-diethyl-6-fluoro-3,4-dihydro-2H-chromen-4-yl]-N′-[(7R)-7-hydroxy-5,6,7,8-tetrahydronaphthalen-1-yl]urea], in data set [1], the “Δ Temp” value turned out to be 1.0 °C. This compound displayed an IC50 in data set [2] of 38 nM.

With `Cn1ncc2c(NC(=O)N[C@@H]3CCOc4c3cccc4C(F)(F)F)cccc21` [Example 59, N-(1-methyl-1H-indazol-4-yl)-N′-[(4R)-8-(trifluoromethyl)-3,4-dihydro-2H-chromen-4-yl]urea], the “Δ Temp” value in data set [1] stood at 0.5 °C. For the same compound, in data set [2], the IC50 was 16 nM.

For the compound `CCC1(CC)C[C@@H](NC(=O)Nc2cccc3c2cnn3C)c2cc(F)cc(F)c2O1` [Example 60, N-[(4R)-2,2-diethyl-6,8-difluoro-3,4-dihydro-2H-chromen-4-yl]-N′-(1-methyl-1H-indazol-4-yl)urea], the “Δ Temp” value in data set [1] was 0.7 °C. Moreover, in data set [2], the IC50 was found to be 22 nM.

For the compound `O=C(Nc1cccc2[nH]ncc12)N[C@@H]1CCOc2c1cccc2C(F)(F)F` [Example 63, N-1H-indazol-4-yl-N′-[(4R)-8-(trifluoromethyl)-3,4-dihydro-2H-chromen-4-yl]urea], the “Δ Temp” value in data set [1] amounted to 1.0 °C. For the same compound, half-maximal inhibition in data set [2] (IC50) was put at 10 nM.

Turning to `CCC1(CC)C[C@@H](NC(=O)Nc2cccc3c2C[C@@H](O)CC3)c2ccc(F)cc2O1` [Example 71, N-[(4R)-2,2-diethyl-7-fluoro-3,4-dihydro-2H-chromen-4-yl]-N′-[(7S)-7-hydroxy-5,6,7,8-tetrahydronaphthalen-1-yl]urea], in data set [1], the “Δ Temp” value is 0.5 °C. The compound further showed an IC50 in data set [2] of 9 nM.

With `CCCC1(CCC)C[C@@H](NC(=O)Nc2cccc3c2C[C@H](O)CC3)c2cc(F)ccc2O1` [Example 72, N-[(4R)-6-fluoro-2,2-dipropyl-3,4-dihydro-2H-chromen-4-yl]-N′-[(7R)-7-hydroxy-5,6,7,8-tetrahydronaphthalen-1-yl]urea], the “Δ Temp” value in data set [1] was 0.7 °C. In data set [2], the IC50 was determined as 7 nM.

Take `CCC1(CC)C[C@@H](NC(=O)Nc2cccc3c2C[C@@H](O)CC3)c2cc(F)ccc2O1` [Example 73, N-[(4R)-2,2-diethyl-6-fluoro-3,4-dihydro-2H-chromen-4-yl]-N′-[(7S)-7-hydroxy-5,6,7,8-tetrahydronaphthalen-1-yl]urea]: the “Δ Temp” value in data set [1] turned out to be 0.9 °C. For the same compound, it took 9 nM to reach half-maximal inhibition in data set [2] (IC50).

Consider `CCC1(CC)C[C@@H](NC(=O)Nc2cccc3c2C[C@H](O)CC3)c2ccc(F)cc2O1` [Example 74, N-[(4R)-2,2-diethyl-7-fluoro-3,4-dihydro-2H-chromen-4-yl]-N′-[(7R)-7-hydroxy-5,6,7,8-tetrahydronaphthalen-1-yl]urea], for which the “Δ Temp” value in data set [1] came to 0.9 °C. This compound came in with an IC50 in data set [2] of 13 nM.

As to `CCC1(CC)C[C@@H](NC(=O)Nc2cccc3c2C[C@H](O)CC3)c2ccc(Cl)cc2O1` [Example 75, N-[(4R)-7-chloro-2,2-diethyl-3,4-dihydro-2H-chromen-4-yl]-N′-[(7R)-7-hydroxy-5,6,7,8-tetrahydronaphthalen-1-yl]urea], in data set [1], the “Δ Temp” value came to 1.0 °C. Further, the IC50 in data set [2] was found to be 10 nM.

Turning to `CCC1(CC)C[C@@H](NC(=O)Nc2cccc3c2C[C@@H](O)CC3)c2ccc(Cl)cc2O1` [Example 76, N-[(4R)-7-chloro-2,2-diethyl-3,4-dihydro-2H-chromen-4-yl]-N′-[(7S)-7-hydroxy-5,6,7,8-tetrahydronaphthalen-1-yl]urea], the “Δ Temp” value in data set [1] is 1.3 °C. Besides, in data set [2], the IC50 turned out to be 9 nM.

Take `CCC1(CC)C[C@@H](NC(=O)Nc2cccc3c2cnn3C)c2cccc(C(F)(F)F)c2O1` [Example 77, N-[(4R)-2,2-diethyl-8-(trifluoromethyl)-3,4-dihydro-2H-chromen-4-yl]-N′-(1-methyl-1H-indazol-4-yl)urea]: the “Δ Temp” value in data set [1] worked out at 1.0 °C. Also, the midpoint of inhibition in data set [2], the IC50, lay at 37 nM.

Turning to `CCC1(CC)C[C@@H](NC(=O)Nc2cccc3c2cnn3C)c2ccc(Cl)cc2O1` [Example 78, N-[(4R)-7-chloro-2,2-diethyl-3,4-dihydro-2H-chromen-4-yl]-N′-(1-methyl-1H-indazol-4-yl)urea], in data set [1], the “Δ Temp” value stood at 0.6 °C. Besides, inhibition in data set [2] was half-maximal at 13 nM (IC50).

Regarding `Cn1ncc2c(NC(=O)N[C@@H]3CCOc4c(OC(F)(F)F)cccc43)cccc21` [Example 79, N-(1-methyl-1H-indazol-4-yl)-N′-[(4R)-8-(trifluoromethoxy)-3,4-dihydro-2H-chromen-4-yl]urea], the “Δ Temp” value in data set [1] was found to be 1.5 °C. This compound also returned an IC50 in data set [2] of 4 nM.

For `Cc1cc2c(NC(=O)N[C@@H]3CC(C)(C)Oc4cc(OC(F)(F)F)ccc43)cccc2cn1` [Example 80, N-[(4R)-2,2-dimethyl-7-(trifluoromethoxy)-3,4-dihydro-2H-chromen-4-yl]-N′-(3-methylisoquinolin-5-yl)urea], the “Δ Temp” value in data set [1] amounted to 1.7 °C. In data set [2], this compound displayed an IC50 of 8 nM.

With `CCC1(CC)C[C@@H](NC(=O)Nc2cccc3ccncc23)c2ccc(F)cc2O1` [Example 82, N-[(4R)-2,2-diethyl-7-fluoro-3,4-dihydro-2H-chromen-4-yl]-N′-isoquinolin-8-ylurea], in data set [1], the “Δ Temp” value is 1.5 °C. Also, it took 18 nM to reach half-maximal inhibition in data set [2] (IC50).

On to `O=C(Nc1cccc2c1C[C@H](O)CC2)N[C@@H]1CC(CF)(CF)Oc2cc(F)ccc21` [Example 89, N-[(4R)-7-fluoro-2,2-bis(fluoromethyl)-3,4-dihydro-2H-chromen-4-yl]-N′-[(7R)-7-hydroxy-5,6,7,8-tetrahydronaphthalen-1-yl]urea], for which the “Δ Temp” value in data set [1] was determined as 1.3 °C. In data set [2], this compound registered an IC50 of 29 nM.

In the case of `CC1(C)C[C@@H](NC(=O)Nc2cccc3cnc(N)cc23)c2ccc(C(F)(F)F)cc2O1` [Example 90, N-(3-aminoisoquinolin-5-yl)-N′-[(4R)-2,2-dimethyl-7-(trifluoromethyl)-3,4-dihydro-2H-chromen-4-yl]urea], the “Δ Temp” value in data set [1] is 1.0 °C. For the same compound, it took 17 nM to reach half-maximal inhibition in data set [2] (IC50).

In the case of `Cn1ncc2c(NC(=O)N[C@@H]3CC(CF)(CF)Oc4cc(OC(F)(F)F)ccc43)cccc21` [Example 92, N-[(4R)-2,2-bis(fluoromethyl)-7-(trifluoromethoxy)-3,4-dihydro-2H-chromen-4-yl]-N′-(1-methyl-1H-indazol-4-yl)urea], the “Δ Temp” value in data set [1] was determined as 0.8 °C. Besides, the IC50 in data set [2] was found to be 21 nM.

`O=C(Nc1cccc2ccncc12)N[C@@H]1CC(CF)(CF)Oc2cc(C(F)(F)F)ccc21` [Example 93, N-[(4R)-2,2-bis(fluoromethyl)-7-(trifluoromethyl)-3,4-dihydro-2H-chromen-4-yl]-N′-isoquinolin-8-ylurea]: the “Δ Temp” value in data set [1] is 1.1 °C. The same compound gave an IC50 in data set [2] of 32 nM.
